# From patent publication US11286255B2, “Pyridone carboxylic acid derivative or salt thereof” (WAKUNAGA PHARMACEUTICAL CO., LTD., priority 2017, dated 2022)
# Key:
# [1] = tested on: MV4-11 (human acute myeloid leukemia cell line); assay: In vitro cell growth inhibition test against MV4-11; format: cell-based; conditions: 72 h, MV4-11 cells, 3 days culture, WST-8 (Cell Counting Kit-8), 50% growth inhibition concentration
# Description: Test Example 2: In Vitro Cell Growth Inhibition Test Against MV4-11 (Human Acute Myeloid Leukemia Cell Line)
# The compound of the present invention was dissolved at a concentration of 1 mM in dimethyl sulfoxide and further diluted into 10.00, 2.50, 0.625, 0.156, 0.039, 0.0098, 0.0024, and 0.00061 μM (final concentrations) using dimethyl sulfoxide and IMDM (Thermo Fisher Scientific Inc., 12440-053) medium. Each of these dilutions was added at 0.05 mL/well to a 96-well flat-bottomed multiplate. An MV4-11 cell suspension was diluted into […] using IMDM (Thermo Fisher Scientific Inc., 12440-053) medium containing […] (fetal bovine serum, Thermo Fisher Scientific Inc.), and this dilution was added at 0.05 mL/well to the compound-containing 96-well flat-bottomed multiplate mentioned above, and cultured at 37° C. for 3 days in an incubator containing 5% carbon dioxide.
# (§1) After the culture, Cell Counting Kit-8 (Dojindo Laboratories), which adopts WST-8 as a chromogenic substrate, was added at 10 μL/well, and the cells were cultured under the same conditions as above for 6 hours, followed by measurement of absorbance at 450 nm. A cell survival rate was calculated in terms of 50% growth inhibition concentration (IC50 (μM)) by the least square method with that of a control group defined as 100%.
# [2] = tested on: PC-3 (human prostate cancer cell line); assay: In vivo antitumor effect test against PC-3 xenograft; set-up: species or system female Balb/c nu-nu mouse; conditions: PC-3 xenograft in Balb/c nu-nu mice, 20 mg/kg, IV, Q7D ×3, tumor growth inhibition vs vehicle group
# Description: Test Example 3: In Vivo Antitumor Effect Test Against PC-3 (Human Prostate Cancer Cell Line)
# A suspension of cancer cells (1×10^7 cells/mL) prepared in RPMI culture medium (Sigma-Aldrich Co. LLC, R8758) was subcutaneously inoculated in an amount of 200 μL to the right abdomen of each female Balb/c nu-nu mouse (Charles River Laboratories Japan, Inc.). After tumor engraftment, animals having a sufficient tumor size were randomly assigned to an active (compound A or compound 078) group and a control (vehicle) group.
# Each test compound (drug) was dissolved at each administration concentration in physiological saline containing 12.5 mM sodium hydroxide. The administration of the compound or a vehicle was started on the day of randomization and continued once a week for 21 days. During the test period, the body weights were measured twice a week throughout the treatment period, and tumors were measured twice a week using calipers. The tumor volumes were measured according to the expression V=L×W^2/2 (V: volume, mm3; L: length, mm; W: width, mm). Using the following expression:
# % TGI=100−((Average tumor volume of the treatment group Average tumor volume of the control group)×100), tumor growth inhibition was calculated on the basis of the average tumor volume of the vehicle group.
# [3] = tested on: WI-38 (human fetal lung fibroblast cell line); assay: In vitro cell growth inhibition test against WI-38; format: cell-based; conditions: WI-38 normal cells, 12.5 μM compound, 3 days culture, WST-8, control group = 100%
# Description: Test Example 4: In Vitro Cell Growth Inhibition Test Against WI-38 (Human Fetal Lung Fibroblast Cell Line)
# A WI-38 cell suspension was inoculated at 5×10^3 cells/100 μL/well (0.1 mL) to a 96-well flat-bottomed multiplate using DMEM (Sigma-Aldrich Co. LLC, D6429) medium containing 10% FBS (fetal bovine serum, Nichirei Biosciences Inc.), and cultured at 37° C. for 1 day in an incubator containing 5% carbon dioxide. Compound A or the compound of the present invention was dissolved at a concentration of 10 mM in dimethyl sulfoxide and further diluted into 12.5 μM (final concentration) using dimethyl sulfoxide and RPMI-1640 medium. This dilution was added at 0.1 mL/well to the culture plate of the WI-38 cells mentioned above after removal of the medium, and the cells were cultured at 37° C. for 3 days in an incubator containing 5% carbon dioxide.
# as §1, with “1 hour,” for “6 hours,”, “calculated” for “calculated in terms of 50% growth inhibition concentration (IC50 (μM)) by the least square method”
# [4] = tested on: NCI-H460 (human non-small cell lung cancer cell line); assay: In vitro cell growth inhibition test against NCI-H460; format: cell-based; conditions: 72 h, NCI-H460 cells, 3 days culture, WST-8 (Cell Counting Kit-8), 50% growth inhibition concentration
# Description: Test Example 1: In Vitro Cell Growth Inhibition Test Against NCI-H460 (Human Non-Small Cell Lung Cancer Cell Line)
# An NCI-H460 cell suspension was inoculated at 4×10^3 cells/100 μL/well (0.1 mL) to a 96-well flat-bottomed multiplate using RPMI-1640 (Sigma-Aldrich Co. LLC, R8758) medium containing 10% […] (fetal bovine serum, Thermo Fisher Scientific Inc.), and cultured at 37° C. for 1 day in an incubator containing 5% carbon dioxide. The compound of the present invention was dissolved at a concentration of 1 mM in dimethyl sulfoxide and further diluted into 5.00, 2.50, 1.25, 0.63, 0.31, 0.16, 0.078, and 0.039 μM (final concentrations) using dimethyl sulfoxide and RPMI-1640 medium. Each of these dilutions was added at 0.1 mL/well to the culture plate of the NCI-H460 cells mentioned above after removal of the medium, and the cells were cultured at 37° C. for 3 days in an incubator containing 5% carbon dioxide.
# as §1, with “WST-8 [2-(2-methoxy-4-nitrophenyl)-3-(4-nitrophenyl)-5-(2,4-disulfophenyl)-2H-tetrazolium monosodium salt]” for “WST-8”, “1 hour,” for “6 hours,”
# [5] = tested on: relapsed/refractory acute myeloid leukemia; conditions: phase III trial, in combination with cytarabine, over-sixties; cited from earlier work
# human cancer cells [6] = conditions: cited from earlier work
# human cancer cells [7] = conditions: cited from earlier work; remark: listed apart in the source
Compound,IC50 [1] [nM],% TGI [2] [%],Cell survival rate (%) [3] [%],IC50 [4] [nM],therapeutic effect as compared with a placebo group [5],antitumor effect in vitro (human cancer cells [6]),antitumor effect in vivo (human cancer cells [7])
"CNC1CN(c2ccc3c(=O)c(C(=O)O)cn(-c4nccs4)c3n2)CC1OC (centres unmarked) [Compound A, 1,4-Dihydro-7-(3-methoxy-4-methylamino-1-pyrrolidinyl)-4-oxo-1-(2-thiazolyl)-1,8-naphthyridine-3-carboxylic acid, reference compound]",10300,21.7,26,370,,,
"Cc1cc(N2CC(C(=O)NCC3CCCCO3)C2)nc2c1c(=O)c(C(=O)O)cn2-c1nccs1 (centres unmarked) [Example 078, 5-methyl-7-{3-[(oxan-2-ylmethyl)carbamoyl]azetidin-1-yl}-4-oxo-1-(1,3-thiazol-2-yl)-1,4-dihydro-1,8-naphthyridine-3-carboxylic acid]",1400,49.2,68,92,,,
"CNC1CN(c2ccc3c(=O)c(C(=O)O)cn(-c4nccs4)c3n2)CC1OC (centres unmarked) [1,4-dihydro-7-(3-methoxy-4-methylamino-1-pyrrolidinyl)-4-oxo-1-(2-thiazolyl)-1,8-naphthyridine-3-carboxylic acid]",,,,,significant therapeutic effect,excellent antitumor effect,excellent antitumor effect
